Experimental data: ChEMBL document CHEMBL1131894, “N-phenylalkyl-substituted tropane analogs of boat conformation with high selectivity for the dopamine versus serotonin transporter” (Bioorg Med Chem Lett, 1999)

Legend:
[1] = molecular target: T1, Sodium-dependent dopamine transporter (Rattus norvegicus, UniProt P23977); assay: Inhibition of [3H]dopamine uptake at striatal nerve endings by dopamine transporter
[2] = Selectivity of uptake of 5-HT to DA; assay type: functional
[3] = molecular target: Sodium-dependent serotonin transporter (Rattus norvegicus, UniProt P31652); assay: Inhibition of [3H]5-HT uptake at striatal nerve endings by serotonin transporter
Sequence of Sodium-dependent serotonin transporter (P31652 whole entry): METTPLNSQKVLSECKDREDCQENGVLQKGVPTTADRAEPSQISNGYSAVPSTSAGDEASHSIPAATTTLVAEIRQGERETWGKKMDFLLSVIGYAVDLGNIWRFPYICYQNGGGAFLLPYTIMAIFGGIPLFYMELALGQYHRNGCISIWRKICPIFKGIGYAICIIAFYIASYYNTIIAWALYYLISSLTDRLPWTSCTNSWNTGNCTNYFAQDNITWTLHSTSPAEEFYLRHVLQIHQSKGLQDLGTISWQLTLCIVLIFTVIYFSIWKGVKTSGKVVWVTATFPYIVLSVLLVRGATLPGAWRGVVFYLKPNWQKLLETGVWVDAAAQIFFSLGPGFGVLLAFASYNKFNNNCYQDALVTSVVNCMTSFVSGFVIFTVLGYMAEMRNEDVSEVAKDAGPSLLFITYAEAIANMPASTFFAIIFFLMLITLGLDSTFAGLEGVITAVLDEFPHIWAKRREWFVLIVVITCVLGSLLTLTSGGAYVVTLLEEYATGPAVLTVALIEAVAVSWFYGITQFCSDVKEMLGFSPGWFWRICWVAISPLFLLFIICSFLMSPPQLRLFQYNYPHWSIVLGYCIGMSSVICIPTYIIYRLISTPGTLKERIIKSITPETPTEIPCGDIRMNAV

[4] = molecular target: T1, Sodium-dependent dopamine transporter; assay: Displacement of [3H]mazindol from cocaine binding site on Dopamine transporter (DAT)

T1 sequence (P23977 whole entry): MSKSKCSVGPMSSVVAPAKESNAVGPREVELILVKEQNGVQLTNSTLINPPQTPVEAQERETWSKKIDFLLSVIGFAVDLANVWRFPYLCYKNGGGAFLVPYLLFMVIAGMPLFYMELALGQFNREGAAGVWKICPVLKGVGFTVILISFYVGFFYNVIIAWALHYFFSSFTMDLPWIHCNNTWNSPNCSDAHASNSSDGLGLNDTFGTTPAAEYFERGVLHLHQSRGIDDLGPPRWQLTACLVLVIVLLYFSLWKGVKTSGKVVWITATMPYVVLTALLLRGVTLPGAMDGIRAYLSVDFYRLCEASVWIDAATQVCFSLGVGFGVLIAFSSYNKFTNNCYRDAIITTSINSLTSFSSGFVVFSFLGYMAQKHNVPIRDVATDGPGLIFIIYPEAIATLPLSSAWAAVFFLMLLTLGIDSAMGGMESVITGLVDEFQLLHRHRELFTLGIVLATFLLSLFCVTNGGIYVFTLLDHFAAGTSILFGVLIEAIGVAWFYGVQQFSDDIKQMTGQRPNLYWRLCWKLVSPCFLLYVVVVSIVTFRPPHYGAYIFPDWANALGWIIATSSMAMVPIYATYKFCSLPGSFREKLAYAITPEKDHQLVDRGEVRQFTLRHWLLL

Structure (SMILES): Fc1ccc(C2C3CC[C@H](C[C@H]2c2ccc(F)cc2)N3Cc2ccccc2)cc1 (some centres undefined)
- Ki [1]: 170 nM
- Selectivity [2]: 2.9
- Ki [3]: 490 nM
- Ki [4]: 260 nM

Structure (SMILES): Cc1ccc([C@@H]2C[C@H]3CCC(C2c2ccccc2)N3C)cc1 (some centres undefined)
- Ki [1]: 4.6 nM
- Selectivity [2]: 26
- Ki [3]: 120 nM
- Ki [4]: 6 nM

Structure (SMILES): Fc1ccc(C2C3CC[C@H](C[C@H]2c2ccc(F)cc2)N3CCC(c2ccccc2)c2ccccc2)cc1 (some centres undefined)
- Ki [1]: > 10000 nM
- Ki [3]: > 20000 nM
- Ki [4]: > 7000 nM

Structure (SMILES): CN1C2CC[C@@H]1C[C@@H](c1ccc(F)cc1)C2c1ccc(F)cc1 (some centres undefined)
- Ki [1]: 14 nM
- Selectivity [2]: 33
- Ki [3]: 460 nM
- Ki [4]: 31 nM

Structure (SMILES): Cc1ccc([C@@H]2C[C@H]3CCC(C2c2ccccc2)N3CCc2ccccc2)cc1 (some centres undefined)
- Ki [1]: 1.6 nM
- Selectivity [2]: 113
- Ki [3]: 180 nM
- Ki [4]: 0.95 nM

Structure (SMILES): Fc1ccc(C2C3CC[C@H](C[C@H]2c2ccc(F)cc2)N3CCc2ccccc2)cc1 (some centres undefined)
- Ki [1]: 26 nM
- Selectivity [2]: > 50
- Ki [3]: > 1.3 nM
- Ki [4]: 10 nM

Structure (SMILES): Fc1ccc(C2C3CC[C@H](C[C@H]2c2ccc(F)cc2)N3CCCc2ccccc2)cc1 (some centres undefined)
- Ki [1]: 43 nM
- Selectivity [2]: 14
- Ki [3]: 608 nM
- Ki [4]: 16 nM

Structure (SMILES): Fc1ccc(C2C3CC[C@H](C[C@H]2c2ccc(F)cc2)N3CCCCc2ccccc2)cc1 (some centres undefined)
- Ki [1]: 210 nM
- Selectivity [2]: 0.52
- Ki [3]: 110 nM
- Ki [4]: 86.4 nM

Structure (SMILES): Fc1ccc(C2C3CCC(C[C@H]2c2ccc(F)cc2)N3)cc1 (some centres undefined)
- Ki [1]: 17 nM
- Selectivity [2]: 2.4
- Ki [3]: 41 nM
- Ki [4]: 49 nM

Structure (SMILES): Fc1ccc(OCCN2C3CC[C@@H]2C[C@@H](c2ccc(F)cc2)C3c2ccc(F)cc2)cc1 (some centres undefined)
- Ki [1]: 27 nM
- Selectivity [2]: 34
- Ki [3]: 928 nM
- Ki [4]: 22 nM
